According to US20230303481A1, “LONG-ACTING LOW-ADDICTION HNK DERIVATIVE AND PREPARATION METHOD THEREFOR” (SHENZHEN RUIJIAN BIOTECHNOLOGY CO., LTD, priority 2020, published 2023):
Entries after “also recorded” stand apart in the source; their conditions may differ. Where a name gives a salt, the structure may show the parent alone.

How the values were obtained:
[1] = tested on: mice; test: Forced swimming test (FST), immobility time; format: in vivo; conditions: for antidepressant effect: dose not given; for course of antidepressant efficacy within 7 days: 1 hour to 7 days
Description: One hour before the forced swimming test (FST), the mice were transferred to the laboratory. The test was conducted under normal light condition and monitored by a digital camera. During the test, the mice were individually placed in transparent glass cylinders (28.5 cm in height, 14 cm in diameter) filled with 20 cm height of water (23±1° C.). On the first day, the mice were trained for 6 minutes and then removed from the cylinder. On the second day, the mice were administered saline, HNK, Compound I5, Compound C, and Compound D, and after different time periods, their immobility time was tested. During the last 4 minutes of the entire 6-minute swimming test, the static time was recorded through EthoVision XT (Noldus, Netherlands) of Noldus system. The static time was defined as passive floating, that is there was no other movement except the movements necessary to keep the animal’s head above the water. After every two to three tests, the water in the cylinders was replaced. After the swimming test, the mice were removed from the water and dried under an infrared lamp.
The mice were given 1 mg (A), 10 mg (B) and 30 mg (C) of HNK and Compund I5 by intragastric administration, respectively, and their immobility time was measured after 1 hour and 7 days. The percentage of immobility time is expressed as mean ± SEM. *p<0.05, **p<0.01, compared to base test. Mice of each group was N=8. Saline: saline group; I5: Compound I5 treatment group; HNK: 2R,6R-hydroxynorketamine treatment group.

[2] = tested on: mice; test: Behavioral sensitization experiment (spontaneous activity measurement); format: in vivo, Male C57BL/6J mice; conditions: 5 mg, 10 mg, 30 mg intragastric once a day for 7 days, 7 days withdrawal, challenge on day 15
Description: (§1) Animals: Male C57BL/6J mice of 8-12 weeks old were randomly divided into groups, 10 mice in each group, with body weight of 18-22 g, fed at room temperature (22±1° C.), under humidity of (50±10)%, illumination time from 8:00 to20:00. The mice had free access to food and water, and adapted to the experimental environment for at least 2-3 days before the experiments. All experiments were conducted from 8:00 to 16:00.
1.1 Small animal spontaneous activity measurement: An animal spontaneous activity infrared analysis system consists of a spontaneous activity box, an infrared probe device and a data acquisition system. The size of the spontaneous activity box is 40 cm × 40 cm × 65 cm, with sound isolation and light isolation, and mounted with a ventilation device. The activity statuses of the animals were recorded by the infrared probe, and the numbers of spontaneous activities of the animals were calculated. In order to test the effect of drugs on spontaneous activities of mice, the mice were randomly divided into 4 groups with 10 mice in each group. The Groups included: vehicle, I5, C, D (5.0, 10.0, 30.0 mg/kg), mor (10 mg/kg). The mice were administrated intragastrically once a day in the morning for 7 consecutive days; after that, the drugs withdrew for 7 days (without any treatment). On the 15th day, mice in each group were given Veh and the drugs (5.0, 10.0, 30.0 mg/kg) by intragastric administration to stimulate. Spontaneous activity of the mice within 1 hour was measured immediately after administration at d1, d7 and d15.
Statistical analysis: Experimental data were expressed as X±SEM. Graphpad software was used for statistical analysis, and t-test was used for comparison between two groups. One-way ANOVA analysis was used for comparison among multiple groups, and then LSD method was used for pairwise comparison.

[3] = tested on: mice; test: Position preference (CPP) experiment, three-room system; format: in vivo, Male C57BL/6J mice; conditions: 5 mg, 10 mg, 30 mg intragastric, 6 days training, residence time in white box within 15 min
Description: as §1
1.2 CPP experiment: A three-room CPP system includes black and white boxes (25 cm × 25 cm × 30 cm) at left and right sides, separated by a middle box (10 cm × 25 cm × 30 cm). During the experiment, mice were put into the middle box and could freely move to the black and white boxes. A door with the size of 5 cm × 5 cm was arranged between the middle box and each of the black and white boxes. The experiment adopted a biased procedure, which had three stages of pre-test, training, and test stages. During the whole experiment, the environmental conditions such as light, color and smell in the boxes were guaranteed to be consistent.
Pre-test stage: On days 1-3, the spacer plates between the boxes were removed, and all mice were put into the middle box after being injected with saline subcutaneously, allowing them to move freely in the boxes for 15 min, once a day for 3 consecutive days. The residence time of the mice in the black and white boxes was respectively recorded to determine the natural preference of the mice. The mice were trained with the non-natural preference box as the companion medicine box. […]
Test stage: on day 10, the spacer plates were removed, and the mice were put into the middle box allowing to move freely. At the same time, the residence time of the mice in the white box within 15 min were recorded.
Statistical analysis: Experimental data were expressed as X±SEM. […]
Position preference was tested by a three-room system. […] After continuous training for 6 days, the test was carried out, and the residence times of the mice within 15 min in the white box were recorded. […]

[4] = Applicant's experimental studies on addiction of HNK (general statement); format: in vivo
[5] = mice, 1 mg intragastric, measured after 1 hour and 7 days

SMILES | antidepressant effect (immobility time, forced swimming) ([1]; mice, 30 mg) | antidepressant effect ([1]; mice) | behavioral sensitization effect on mice [2] | position preference effect on mice [3] | antidepressant effect (immobility time, forced swimming) [1, 5] | antidepressant effect (immobility time, forced swimming) ([1]; mice, 10 mg intragastric) | course of antidepressant efficacy within 7 days ([1]; mice, 10 mg intragastric) | course of antidepressant efficacy within 7 days ([1]; mice, 30 mg intragastric) | antidepressant effect at the 7th day after administration (reduction in immobility time) ([1]; mice, compared with HNK-treated group, 10 mg and 30 mg groups) | behavioral sensitization effect on mice ([2]; dihydrochloride) | position preference effect on mice ([3]; dihydrochloride) | addiction [4] | duration of efficacy after administration ([1]; general statement)
CN[C@@]1(c2ccccc2Cl)CCC[C@@H](OC(=O)c2ccccc2)C1=O [Compound C] | no antidepressant effect | no antidepressant effect | behavioral sensitizing effect; also recorded: behavioral sensitization effect | induced position preference |  |  |  |  |  |  |  |  | 
N[C@]1(c2ccccc2Cl)CCC[C@H](OC(=O)c2ccc(CN3CCOCC3)cc2)C1=O [Compound D] | no antidepressant effect | no antidepressant effect | behavioral sensitizing effect; also recorded: behavioral sensitization effect | induced position preference |  |  |  |  |  |  |  |  | 
CN(C)c1ccc(C(=O)O[C@@H]2CCC[C@@](N)(c3ccccc3Cl)C2=O)cc1 [Compound I5, (2R, 6R)-6-p-dimethylaminobenzoyloxydemethylketamine dihydrochloride] | had antidepressant effect |  |  |  | no antidepressant effect | had antidepressant effect | substantially did not decrease within 7 days | substantially did not decrease within 7 days | significant antidepressant effect | no behavioral sensitization effect; also recorded: non-sensitization effect | no position preference effect; also recorded: non-position preference effect |  | 
N[C@@]1(c2ccccc2Cl)CCC[C@@H](O)C1=O [HNK, (2R,6R)-6-hydroxydemethylketamine, reference compound] | had antidepressant effect |  |  |  | no antidepressant effect | had antidepressant effect | decreased rapidly within 7 days, and substantially had no effect on the 7th day | decayed rapidly within 7 days, and substantially had no effect on the 7th day |  |  |  | a certain degree of addiction | basically lost activity within one week
